Assays:
[1] = tested on: Squash Bug Adults; assay: Field trial, contact poison test; assay type: in vivo; set-up: key: 0-9 rating: 0 = 0-10% mortality, 9 = 91-100% mortality
Description: (§1) Infested plants are placed in 6 oz. prescription bottles filled with water to keep them from wilting. Cellucotton is wrapped around the plant stem and squeezed into the bottle neck to prevent the insects from drowning.
(§2) A DeVilbiss Special Atomizer (5004) is used at 10 psi to spray the test plant with different concentrations of compounds. The atomizer is held at arm's length to prevent blowing the insects off the host plant. After treating, the bottles are placed on a table covered with brown wrapping paper to catch the dead insects as they drop from the plant. The plants are spaced so the leaves or plants are not touching one another.
(§3) The results are read at 24, 48, and 72 hours when applicable. The rating scale is 0 to 9 where 0 = 0-10 percent and 9 = 91-100 percent mortality.
(§4) Using the above methods, field trials were carried out against species of 5 orders of insects. The results, which are summarized in the following tables, give the average mortality for the particular insect with a given benzimidazole for each concentration employed. […] These tables contain all results obtained during the summer trials.

[2] = tested on: Aphids - Sour Gum; assay: Field trial, stomach poison test; assay type: in vivo
Procedure: (§5) Leaves from the infested plant are treated with different concentrations of the test compounds, either by spraying with a DeVilbiss Special Atomizer (5004) at 10 psi or by dipping the leaves in solutions containing the compound. The leaves are then allowed to air dry.
(§6) After the leaves have dryed, they are placed in plastic petri dishes (100 × 25 mm), then the insects are counted out into each dish, five or ten insects per dish depending on the number of insects available. There are one or two replicates and usually two or three rates with each compound. Mortality results are taken at 24, 48 and 72 hours. The rating scale is 0 to 9.
as §4

[3] = tested on: Meadow Spittlebug; assay: Field trial, stomach poison test; assay type: in vivo
Procedure: as §5, §6, §4

[4] = tested on: Aphids - Tulip Tree; assay: Field trial, stomach poison test; assay type: in vivo
Procedure: as §5, §6, §4

[5] = tested on: Aphids - Apple; assay: Field trial, stomach poison test; assay type: in vivo
Procedure: as §5, §6, §4

[6] = tested on: Red-Legged Grasshopper Adults; assay: Field trial, contact poison test; assay type: in vivo
Description: as §1, §2, §3, §4

[7] = tested on: Southern Corn Rootworm Adults; assay: Field trial, contact poison test; assay type: in vivo
Description: as §1, §2, §3, §4

[8] = tested on: Tarnished Plant Bug Adults; assay: Field trial, stomach poison test; assay type: in vivo; set-up: key: mortality rating on a 0 to 9 scale
Procedure: as §5, §6, §4

[9] = tested on: Unidentified Green Leafhopper; assay: Field trial, stomach poison test; assay type: in vivo; set-up: key: mortality rating on a 0 to 9 scale
Procedure: as §5, §6, §4

[10] = tested on: Southern Corn Rootworm Adults; assay: Field trial, stomach poison test; assay type: in vivo; set-up: key: mortality rating on a 0 to 9 scale
Procedure: as §5, §6, §4

[11] = tested on: Striped Cucumber Beetle Adults; assay: Field trial, stomach poison test; assay type: in vivo; set-up: key: mortality rating on a 0 to 9 scale
Procedure: as §5, §6, §4

[12] = tested on: Yellow Mealworm Larvae; assay: Field trial, topical application; assay type: in vivo; set-up: key: 0 = 0-10% mortality, 9 = 91-100% mortality (0-9 scale)
Procedure: as §3
In a variation of the above test, 1 microliter of a test solution containing a predetermined number of micrograms of benzimidazole was applied directly to larvae or adult insects.
as §4

[13] = tested on: Citrus Rust Mite (CRM); assay: Miticide test, acute mortality, foliar spray; assay type: in vivo; conditions: after 72 hours
Procedure: Citrus cuttings were obtained and prepared for testing within 24 hours prior to inoculation with citrus rust mites. To prepare the cuttings, terminals of branches 12 to 14 inches in length were cut from temple orange trees, immediately placed in tap water and taken into the laboratory. Uniform hardwood cuttings, 3 to 4 inches in length, were cut from the branches, all but one hardened leaf was removed from the cuttings, and the remaining leaf was wiped clean with a cotton pad soaked in 10% ethanol solution. Each cutting was immediately placed in tap water in a test tube with the closed leaf extending out of the test tube. Then, a ring of melted lanolin was applied around the petiole to prevent migration of mites from the leaf. One cutting was used for each replicate.
When the leaves were dry immediately after cleaning, citrus rust mites were transferred to the test leaves by cutting a heavily infested colony leaf (from a source colony maintained on citrus seedlings) into 20 to 22 sections (approximately 0.25 by 0.5 inches in size) and using forceps to place 1 section on each leaf cutting. As the section became desiccated the mites moved to the whole leaf and in 20 hours the sections were removed from the leaves for treatment application.
Treatments were applied within 24 hours after inoculation by removing the cuttings from the test tube and submerging the leaves in the treatment solution for 5 seconds by hand and immediately returning the cutting to the test tube. […]
(§7) The treated cuttings were stored in the greenhouse for 24 hours before evaluation under a binocular disecting microscope in the laboratory. In evaluating the results of the miticide test, each treated cutting was removed from the test tube, observed for live and dead mites at 14 × magnification, and returned immediately to the test tube. A scale of 0-9 was used as before.

[14] = tested on: Two-Spotted Spider Mite (2-SSM); assay: Miticide test, acute mortality, foliar spray; assay type: in vivo, Tetranychus urticae
Procedure: Each 5 mg. sample of technical compound preweighed at Greenfield was dissolved in 2.5 ml. of acetone and diluted with 247.5 ml. of water containing a combination of […]
as §7
The test employing two-spotted spider mites was conducted in similar fashion except that the mites were maintained on squash seedlings or squash cuttings.

For `CCOC(=O)n1c(C(F)(F)F)nc2c([N+](=O)[O-])cc(C(F)(F)F)cc21` [U, ethyl 4-nitro-2,6-bis(trifluoromethyl)benzimidazolecarboxylate], the average mortality rating ([1]; 125 ppm) was 5, the average mortality rating ([1]; 250 ppm) was 5 and the average mortality rating ([1]; 500 ppm) was 7. The average mortality rating ([1]; 750 ppm) was 7, the average mortality rating ([2]; 25 ppm) was 9 (91-100 percent mortality) and the average mortality rating ([2]; 50 ppm) was 7. The average mortality rating ([2]; 100 ppm) was 9 (91-100 percent mortality), the average mortality rating ([3]; 10 ppm) was 5 and the average mortality rating ([3]; 25 ppm) was 5. The average mortality rating ([3]; 50 ppm) was 3, the average mortality rating ([3]; 100 ppm) was 0 (0-10 percent) and the average mortality rating ([4]; 25 ppm) was 6. The average mortality rating ([4]; 50 ppm) was 8, the average mortality rating ([4]; 100 ppm) was 9 (91-100 percent mortality) and the average mortality rating ([5]; 25 ppm) was 2. For the same compound, the average mortality rating ([5]; 50 ppm) was 4, the average mortality rating ([5]; 100 ppm) was 6 and the average mortality rating ([6]; 25 ppm) was 9 (91-100 percent mortality). For the same compound, the average mortality rating ([6]; 50 ppm) was 9 (91-100 percent mortality), the average mortality rating ([7]; 25 ppm) was 4 and the average mortality rating ([7]; 50 ppm) was 9 (91-100 percent mortality). The average mortality rating ([7]; 100 ppm) was 9 (91-100 percent mortality), the average mortality rating ([8]; 10 ppm) was 0 (0-10 percent) and the average mortality rating ([8]; 25 ppm) was 1. It also gave an average mortality rating ([8]; 50 ppm) of 6, an average mortality rating ([9]; 10 ppm) of 3 and an average mortality rating ([9]; 25 ppm) of 7. For the same compound, the average mortality rating ([9]; 50 ppm) was 9 (91-100 percent mortality), the average mortality rating ([10]; 25 ppm) was 5 and the average mortality rating ([10]; 50 ppm) was 3. It also gave an average mortality rating ([10]; 100 ppm) of 3, an average mortality rating ([11]; 10 ppm) of 2 and an average mortality rating ([11]; 25 ppm) of 1. The average mortality rating ([11]; 50 ppm) was 4, the average mortality rating ([11]; 100 ppm) was 9 (91-100 percent mortality) and the average mortality rating ([12]; 0.03 μg/μl) was 4. The average mortality rating ([12]; 0.07 μg/μl) was 4, the average mortality rating ([12]; 0.15 μg/μl) was 6 and the acute mortality rating ([13]; 6.25 ppm) was 1. The acute mortality rating ([13]; 12.5 ppm) was 1, the acute mortality rating ([13]; 25 ppm) was 9 (91-100 percent mortality) and the acute mortality rating ([13]; 50 ppm) was 9 (91-100 percent mortality). It also gave an acute mortality rating ([13]; 100 ppm) of 8, an acute mortality rating ([14]; 6.25 ppm) of 1 and an acute mortality rating ([14]; 12.5 ppm) of 3. For the same compound, the acute mortality rating ([14]; 25 ppm) was 8, the acute mortality rating ([14]; 50 ppm) was 8 and the acute mortality rating ([14]; 100 ppm) was 9 (91-100 percent mortality).
